# Data: PubChem BioAssay (NCI)
#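 The compound was tested at five concentrations on cells cultured in 96-well plates, with a 48-hour exposure period. Definition used: TGI = concentration required for complete inhibition of growth.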
# Legend:
# Experiment in all cases: NCI anticancer screen, dose series, 48 h
# HCT-15 colon = system: HCT-15 colon
# KM12 colon = system: KM12 colon
# MDA-N = system: MDA-N
# HCT-116 colon = system: HCT-116 colon
# SNB-75 CNS = system: SNB-75 CNS
# SK-MEL-5 melanoma = system: SK-MEL-5 melanoma
# HOP-92 NSCLC = system: HOP-92 NSCLC
# HT29 colon = system: HT29 colon
# SK-MEL-28 melanoma = system: SK-MEL-28 melanoma
# OVCAR-3 ovarian = system: OVCAR-3 ovarian
# SW-620 colon = system: SW-620 colon
# NCI-H460 lung = system: NCI-H460 lung
# HCC-2998 colon = system: HCC-2998 colon
# TK-10 renal = system: TK-10 renal
# T-47D breast = system: T-47D breast
# MDA-MB-435 = system: MDA-MB-435
# NCI-H522 lung = system: NCI-H522 lung
# RPMI-8226 leukemia = system: RPMI-8226 leukemia
Compound,TGI (HCT-15 colon) [µM],TGI (KM12 colon) [µM],TGI (MDA-N) [µM],TGI (HCT-116 colon) [µM],TGI (SNB-75 CNS) [µM],TGI (SK-MEL-5 melanoma) [µM],TGI (HOP-92 NSCLC) [µM],TGI (HT29 colon) [µM],TGI (SK-MEL-28 melanoma) [µM],TGI (OVCAR-3 ovarian) [µM],TGI (SW-620 colon) [µM],TGI (NCI-H460 lung) [µM],TGI (HCC-2998 colon) [µM],TGI (TK-10 renal) [µM],TGI (T-47D breast) [µM],TGI (MDA-MB-435) [µM],TGI (NCI-H522 lung) [µM],TGI (RPMI-8226 leukemia) [µM]
C/C(O)=C(/C=N\C(=S)Nc1ccc(Cl)c(Cl)c1)C(=O)Nc1ccccc1C,> 100,> 100,> 100,> 100,66.3,44,58.1,87.1,> 100,> 100,> 100,> 100,> 100,> 100,45.7,> 100,–,–
COc1ccc(C(=O)/C=C2\c3ccccc3C(=O)N2C)cc1,> 100,> 100,> 100,> 100,> 100,> 100,75.7,> 100,> 100,> 100,> 100,> 100,–,> 100,> 100,> 100,> 100,> 100
CCOC(=O)C1(Cc2ccccc2)Cc2cc3c(cc2C1=O)CCC3 (stereo not given),> 100,> 100,> 100,> 100,> 100,> 100,> 100,> 100,> 100,> 100,> 100,> 100,> 100,> 100,> 100,> 100,–,> 100
C/C(=N\Nc1nc2ccccc2[nH]1)c1ccncn1,> 100,35.9,> 100,26.8,> 74.5,13.4,0.293,> 100,> 63,13,> 100,> 100,> 79.5,> 100,> 100,> 100,–,–
Cc1nc2c(=O)[nH]c3ccccc3c2o1,> 100,> 100,> 100,> 100,> 100,> 100,> 100,> 100,> 100,> 100,> 100,> 100,> 100,> 100,> 100,> 100,–,> 100
COc1cc(COC(=O)N2CCCCC2C(=O)O)c([N+](=O)[O-])cc1OC (stereo not given),> 100,> 100,> 100,> 100,> 100,> 100,> 100,> 100,> 100,> 100,> 100,> 100,> 100,> 100,> 100,> 100,–,> 100
